One data set deals with Male Sprague-Dawley rats. As to the kind of experiment: Cardiac safety assay 2: in vivo echocardiography with IV drug infusion. Further details: species or system rat. From the text: The first (results shown in Table 2) assesses the effects of our compounds on the contractility of cardiomyocytes. As the cardiac Ki increases, the contractility effects dramatically decrease. However, unlike in the adult heart, the hiPS cardiomyocytes used in this assay express NMII, which likely accounts for the residual contractility effects seen at the highest dose tested. For that reason, we moved to in vivo echocardiograms, which assess contractility in live animals (FIG. 7). […] Accordingly, the compounds of the invention and compounds used for practice of methods of the invention can produce less cardiac toxicity than does blebbistatin.
Male Sprague-Dawley rats are acclimated for approximately 1 week prior to use. Rats are lightly anesthetized using isoflurane and an intravenous catheter is placed for dosing purposes. Baseline 2-D echocardiograms are collected (standard SAX B-mode and M-mode at the level of the papillary muscle). Each rat receives a total of 3 IV treatments. Vehicle (10% DMSO, 10% Tween 80 and 80% water) is first administered, followed 10 minutes later by two subsequent infusions, separated by 10 minutes. Infusions of the positive control, Blebbistatin, are delivered at 0.5 mg/kg IV. […] Measurements including fractional shortening, ejection fraction, heart rate and cardiac output are calculated.

Data set [1] can be described thus: Brain and plasma distribution after IP dosing. It counts as in vivo, mice. The following applies: 10 mg/kg. On the procedure:
FIG. 4: Brain and plasma distribution of blebbistatin after IP dosing at 10 mg/kg in mice.
(§1) The potential for systemic NMII inhibition to selectively target METH-associated memories in the way that intra-AMY administration does was also investigated. […] IP administered Blebbistatin also disrupts reconsolidation of memories for cocaine, nicotine and mephedrone, a result with additional potential therapeutic relevance in treating relapse^75-76. In addition, the BLC spine density increase that accompanies a METH-associated memory is reversed by Blebbistatin (FIG. 3C), without altering the spine density increase associated with a fear memory (FIG. 3D)^65, 74.

A short description of data set [2]: Solubility (quoted in the Table 2 note). Format: physicochemical.
In another data set the test system is METH-associated memory. As to the kind of experiment: METH-associated memory, conditioned place preference (CPP) assay. Format: in vivo, mice and rats. The settings on record: single intra-BLC or IP administration (IP 10 mg/kg).
Source text: In 2013, we published the finding that depolymerization of actin in the AMY disrupts the storage of METH-associated memories in a selective, retrieval-independent manner^65. Because of the limited clinical potential of actin depolymerizing agents, we turned to NMII, a molecular motor we previously found to be a key regulator of memory, synaptic plasticity (long-term potentiation [LTP]) and actin polymerization in dendritic spines^59 63. Through a series of experiments in a recently published studies, we detailed NMII's potential as a therapeutic target for SUD relapse^52,74-76.
as §1

For the next data set, the system named is METH seeking. The data set is described as follows: Context-induced reinstatement of METH seeking (animal model of relapse). Format: in vivo. The settings on record: single intra-BLC administration.
Data set [3] concerns polydrug-associated memories. As to the kind of experiment: Polydrug-associated memory CPP (METH/NIC, METH/MOR). It counts as in vivo, mice. The following applies: Test 1 and Test 2, drugs on alternating days. How it is done:
FIG. 6(A,B,C,D,E): Nonmuscle myosin II inhibition disrupts polydrug-associated memories when the drugs are administered on alternating days (A) Schematic of the experimental design. […] METH/NIC: Veh n=10; METH/NIC: Blebb n=10; METH/MOR: Veh n=19; METH/MOR: Blebb n=19; * p<0.05, ** p<0.01, *** p<0.001. Error bars represent±s.e.m.
The vast majority of individuals with substance use disorder are polydrug users. For example, most METH users also smoke. We recently made an unexpected discovery with direct relevance to polydrug use^76. When animals are treated with both METH and a drug that is impervious to Blebb on its own (nicotine or morphine), either concurrently or on alternating days, the nicotine and morphine memories become susceptible to immediate disruption by Blebb, akin to the effect on METH alone memories (FIG. 6). Thus, memories for previously impervious drugs of abuse become susceptible to NMII inhibition when METH associations are also formed. Importantly, this occurs when associative training is performed with METH and the other drug of abuse being administered simultaneously or separately, on different days. We are currently expanding our analysis to other commonly abused drugs, including other opioids, such as heroin, alcohol, cocaine and synthetic cathinones.

A short description of data set [4]: Photostability, percentage remaining undegraded under illumination or in the dark.
In the next data set the test system is various myosin IIs. The settings on record: reported in the literature; read-out: biochemical IC50 values in various myosin IIs; cited from earlier work.

This is an account of results in patent publication US20250163056A1, “NONMUSCLE MYOSIN II INHIBITORS” (The University of Florida Research Foundation, Inc., priority 2018, published 2025).

By solubility is commonly meant how much of the substance goes into solution per volume. Read a low solubility as a poorly soluble substance. By IC50 is commonly meant the concentration that inhibits the measured activity by half.

In brackets after ≈: the same amount, converted by molar mass. Bounds are passed on as bounds.

With `Cc1ccc2c(c1)C(=O)[C@]1(O)CCN(c3ccccc3)C1=N2` [Blebbistatin, reference compound], the “contractility effects in in vivo echocardiograms” value in the data set with Male Sprague-Dawley rats is on record as “substantial contractility effects”. The same molecule had a brain levels in data set [1] of 90 µM. The solubility in data set [2] came to 9.3 µM (≈ 2.72 µg/mL). Besides, in the data set on METH-associated memory (listed as Blebb), the METH-associated memory result was “disrupt a METH-associated memory”. Also, in the data set with METH-associated memory (listed as blebbistatin), the METH-associated memory result is given as “disrupted”. Besides, the “context-induced reinstatement of METH seeking” value in the data set on METH seeking is on record as “prevents context-induced reinstatement of METH seeking”. Moreover, in data set [3], the “METH/MOR CPP” value is given as “did not demonstrate a significant METH/MOR CPP during either test” and the “METH/NIC CPP” value is “did not demonstrate a significant METH/NIC CPP during either test”. In addition, in data set [4] (percentage remaining undegraded after 4 hours illumination), the “Photostability 4 hours” value came to 82.9%. Also, the “Photostability 24 hours” value in data set [4] (percentage remaining undegraded after 24 hours illumination) is on record as 9.3%. Besides, in data set [4] (percentage remaining undegraded in the dark, 24 h), the “Photostability Dark (24 h)” value is given as above 99%. Moreover, the half-maximal inhibitory concentration (IC50) with various myosin IIs was 1.8 to 9 µM.
